Test results reported in patent US8299073B2, “P38 MAP kinase inhibitors” (Respivert Ltd., priority 2008, dated 2012).

Tests used:
[1] = test system: Differentiated U937 cells; test: MTT assay (loss of cell viability); type: cell-based, human; conditions: loss of cell viability, 10 ug/ml
[2] = test system: LPS-induced TNFα release in THP-1 cells; test: LPS-induced TNF alpha release in THP-1 cells; type: cell-based; conditions: Homo sapiens, THP-1; LPS-induced TNFα release; read-out: IC50 values THP-1 cells
[3] = test system: LPS-induced TNFα release in differentiated U937 cells; test: LPS-induced TNF alpha release in differentiated U937 cells; type: cell-based; conditions: Homo sapiens; read-out: R-EC50 values d-U937 cells
[4] = biological target: T1, recombinant, phosphorylated p38 MAPK gamma (MAPK12:Millipore) (Homo sapiens, UniProt P53778); test: Enzyme inhibition assay (FRET, Z-LYTE), p38 MAPK gamma; type: biochemical; conditions: read-out: IC50 values P38γ enzyme
T1 construct: purchased Millipore
T1 sequence (P53778 1-367): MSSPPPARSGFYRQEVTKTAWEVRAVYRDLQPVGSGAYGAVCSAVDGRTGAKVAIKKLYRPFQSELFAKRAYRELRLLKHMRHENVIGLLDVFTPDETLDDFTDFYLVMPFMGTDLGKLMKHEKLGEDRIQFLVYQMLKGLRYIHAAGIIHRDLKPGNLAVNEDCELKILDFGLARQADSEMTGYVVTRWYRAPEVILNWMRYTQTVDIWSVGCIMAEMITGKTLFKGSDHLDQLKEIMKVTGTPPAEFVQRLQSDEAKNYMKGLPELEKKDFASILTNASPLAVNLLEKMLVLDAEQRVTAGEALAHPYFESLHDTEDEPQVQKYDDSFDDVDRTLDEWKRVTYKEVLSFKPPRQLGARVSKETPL

[5] = biological target: T2, p38 MAPK alpha (MAPK14: Invitrogen) (Homo sapiens, UniProt Q16539); test: Enzyme inhibition assay (FRET, Z-LYTE), p38 MAPK alpha, via activation of MAPKAP-K2; type: biochemical; conditions: read-out: IC50 values p38α enzyme
T2 construct: purchased Invitrogen
T2 sequence (Q16539 whole entry): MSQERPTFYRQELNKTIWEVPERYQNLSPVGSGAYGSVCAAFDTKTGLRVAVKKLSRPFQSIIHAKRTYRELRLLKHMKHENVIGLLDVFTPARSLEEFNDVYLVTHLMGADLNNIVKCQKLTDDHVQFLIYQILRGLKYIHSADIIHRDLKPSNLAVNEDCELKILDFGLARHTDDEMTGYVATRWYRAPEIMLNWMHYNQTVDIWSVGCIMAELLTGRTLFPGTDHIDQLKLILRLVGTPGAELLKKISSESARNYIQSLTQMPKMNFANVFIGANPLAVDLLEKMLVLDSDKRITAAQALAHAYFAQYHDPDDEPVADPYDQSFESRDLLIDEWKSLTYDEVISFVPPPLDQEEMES

| SMILES | IC50 [2] | EC50 [3] | IC50 [4] | IC50 [5] | MTT 4 hr [1] | MTT 24 hr [1] |
| --- | --- | --- | --- | --- | --- | --- |
| COCCSCC(=O)Nc1cc(COc2ccc(NC(=O)Nc3cc(C(C)(C)C)nn3-c3ccc(C)cc3)c3ccccc23)ccn1 [Example 29, N-(4-((4-(3-(3-tert-Butyl-1-p-tolyl-1H-pyrazol-5-yl)ureido)naphthalen-1-yloxy)methyl)pyridin-2-yl)-2-(2-methoxyethylthio)acetamide] | < 0.01 µM | < 0.01 µM | < 0.5 µM | < 0.5 µM | − (− <30%) | − (− <30%) |
| COCCOCCSCC(=O)Nc1cc(COc2ccc(NC(=O)Nc3cc(C(C)(C)C)nn3-c3ccc(C)cc3)c3ccccc23)ccn1 [Example 30, N-(4-((4-(3-(3-tert-Butyl-1-p-tolyl-1H-pyrazol-5-yl)ureido)naphthalen-1-yloxy)methyl)pyridin-2-yl)-2-(2-(2-methoxyethoxy)ethylthio)acetamide] | < 0.01 µM | < 0.01 µM | < 0.5 µM | < 0.5 µM | − (− <30%) | − (− <30%) |
| Cc1ccc(-n2nc(C(C)(C)C)cc2NC(=O)Nc2ccc(OCc3ccnc(NC(=O)CSCCN4CCOCC4)c3)c3ccccc23)cc1 [Example 31, N-(4-((4-(3-(3-tert-Butyl-1-p-tolyl-1H-pyrazol-5-yl)ureido)naphthalen-1-yloxy)methyl)pyridin-2-yl)-2-(2-morpholinoethylthio)acetamide] | < 0.01 µM | < 0.01 µM | < 0.5 µM | < 0.5 µM | − (− <30%) | + (+ >30% at 10 ug/ml) |
| Cc1ccc(-n2nc(C(C)(C)C)cc2NC(=O)Nc2ccc(OCc3ccnc(NC(=O)CS(=O)(=O)CCN4CCOCC4)c3)c3ccccc23)cc1 [Example 32, N-(4-((4-(3-(3-tert-Butyl-1-p-tolyl-1H-pyrazol-5-yl)ureido)naphthalen-1-yloxy)methyl)pyridin-2-yl)-2-(2-morpholinoethylsulfonyl)acetamide] | < 0.5 µM | < 0.01 µM | < 0.5 µM | < 0.01 µM | − (− <30%) | − (− <30%) |
| COCCN(CCOC)CC(=O)Nc1cc(COc2ccc(NC(=O)Nc3cc(C(C)(C)C)nn3-c3ccc(C)cc3)c3ccccc23)ccn1 [Example 33, 2-(Bis(2-methoxyethyl)amino)-N-(4-((4-(3-(3-tert-butyl-1-p-tolyl-1H-pyrazol-5-yl)ureido)naphthalen-1-yloxy)methyl)pyridin-2-yl)acetamide] | < 0.01 µM | < 0.01 µM | < 5 µM | < 0.01 µM | − (− <30%) | − (− <30%) |
| COCC(=O)Nc1cc(OCCc2ccc(NC(=O)Nc3cc(C(C)(C)C)nn3-c3ccc(C)cc3)c3ccccc23)ccn1 [Example 43, N-(4-(2-(4-(3-(3-tert-butyl-1-p-tolyl-1H-pyrazol-5-yl)ureido)naphthalen-1-yl)ethoxy)pyridin-2-yl)-2-methoxyacetamide] | < 0.5 µM | < 0.5 µM | < 5 µM | < 0.5 µM | − (− <30%) | − (− <30%) |
| COCC(=O)Nc1cc(CC(C)Oc2ccc(NC(=O)Nc3cc(C(C)(C)C)nn3-c3ccc(C)cc3)c3ccccc23)ccn1 (stereo not drawn) [Example 46, N-(4-(2-(4-(3-(3-tert-Butyl-1-p-tolyl-1H-pyrazol-5-yl)ureido)naphthalen-1-yloxy)propyl)pyridin-2-yl)-2-methoxyacetamide] | < 0.5 µM | < 0.5 µM | > 5 µM | < 0.5 µM | − (− <30%) | − (− <30%) |
| COCC(=O)Nc1cc(C(C)COc2ccc(NC(=O)Nc3cc(C(C)(C)C)nn3-c3ccc(C)cc3)c3ccccc23)ccn1 (stereo not drawn) [Example 47, N-(4-(1-(4-(3-(3-tert-Butyl-1-p-tolyl-1H-pyrazol-5-yl)ureido)naphthalen-1-yloxy)propan-2-yl)pyridin-2-yl)-2-methoxyacetamide] | < 0.01 µM | < 0.01 µM | > 5 µM | < 0.5 µM | − (− <30%) | − (− <30%) |

Second part, led by results:

| IC50 [2] | EC50 [3] | IC50 [4] | IC50 [5] | SMILES | MTT 4 hr [1] | MTT 24 hr [1] |
| --- | --- | --- | --- | --- | --- | --- |
| < 0.01 µM | < 0.01 µM | < 0.5 µM | < 0.01 µM | COCCC(=O)Nc1cc(COc2ccc(NC(=O)Nc3cc(C(C)(C)C)nn3-c3ccc(C)cc3)c3ccccc23)ccn1 [Example 14, N-(4-((4-(3-(3-tert-Butyl-1-p-tolyl-1H-pyrazol-5-yl)ureido)naphthalen-1-yloxy)methyl)pyridin-2-yl)-3-methoxypropanamide] | − (− <30%) | − (− <30%) |
| < 0.01 µM | < 0.01 µM | < 0.5 µM | < 0.5 µM | Cc1ccc(-n2nc(C(C)(C)C)cc2NC(=O)Nc2ccc(OCc3ccnc(NC(=O)CCCN(C)C)c3)c3ccccc23)cc1 [Example 16, N-(4-((4-(3-(3-tert-Butyl-1-p-tolyl-1H-pyrazol-5-yl)ureido)naphthalen-1-yloxy)methyl)pyridin-2-yl)-4-(dimethylamino)butanamide] | + (+ >30% at 10 ug/ml) | + (+ >30% at 10 ug/ml) |
| < 0.01 µM | < 0.01 µM | < 0.5 µM | < 0.01 µM | Cc1ccc(-n2nc(C(C)(C)C)cc2NC(=O)Nc2ccc(OCc3ccnc(NC(=O)CCS(C)(=O)=O)c3)c3ccccc23)cc1 [Example 17, N-(4-((4-(3-(3-tert-Butyl-1-p-tolyl-1H-pyrazol-5-yl)ureido)naphthalen-1-yloxy)methyl)pyridin-2-yl)-3-(methylsulfonyl)propanamide] | − (− <30%) | − (− <30%) |
| < 0.01 µM | < 0.5 µM | > 5 µM | < 0.5 µM | Cc1ccc(-n2nc(C(C)(C)C)cc2NC(=O)Nc2ccc(OCc3ccnc(NC(=O)N4CCN(S(C)(=O)=O)C4=O)c3)c3ccccc23)cc1 [Example 18, N-(4-((4-(3-(3-tert-Butyl-1-p-tolyl-1H-pyrazol-5-yl)ureido)naphthalen-1-yloxy)methyl)pyridin-2-yl)-3-(methylsulfonyl)-2-oxoimidazolidine-1-carboxamide] | − (− <30%) | − (− <30%) |
| < 0.01 µM | < 0.01 µM | < 0.5 µM | < 0.01 µM | Cc1ccc(-n2nc(C(C)(C)C)cc2NC(=O)Nc2ccc(OCc3ccnc(NC(=O)CN4CCCC4)c3)c3ccccc23)cc1 [Example 22, N-(4-((4-(3-(3-tert-Butyl-1-p-tolyl-1H-pyrazol-5-yl)ureido)naphthalen-1-yloxy)methyl)pyridin-2-yl)-2-(pyrrolidin-1-yl)acetamide] | − (− <30%) | − (− <30%) |
| < 0.01 µM | < 0.01 µM | < 0.5 µM | < 0.01 µM | Cc1ccc(-n2nc(C(C)(C)C)cc2NC(=O)Nc2ccc(OCc3ccnc(NC(=O)CN4CCN(C)CC4)c3)c3ccccc23)cc1 [Example 23, N-(4-((4-(3-(3-tert-Butyl-1-p-tolyl-1H-pyrazol-5-yl)ureido)naphthalen-1-yloxy)methyl)pyridin-2-yl)-2-(4-methylpiperazin-1-yl)acetamide] | + (+ >30% at 10 ug/ml) | + (+ >30% at 10 ug/ml) |
| < 0.01 µM | < 0.01 µM | < 0.5 µM | < 0.01 µM | COCCN1CCN(CC(=O)Nc2cc(COc3ccc(NC(=O)Nc4cc(C(C)(C)C)nn4-c4ccc(C)cc4)c4ccccc34)ccn2)CC1 [Example 24, N-(4-((4-(3-(3-tert-Butyl-1-p-tolyl-1H-pyrazol-5-yl)ureido)naphthalen-1-yloxy)methyl)pyridin-2-yl)-2-(4-(2-methoxyethyl)piperazin-1-yl)acetamide] | − (− <30%) | − (− <30%) |
| < 0.01 µM | < 0.01 µM | < 0.5 µM | < 0.5 µM | CNCC(=O)Nc1cc(COc2ccc(NC(=O)Nc3cc(C(C)(C)C)nn3-c3ccc(C)cc3)c3ccccc23)ccn1 [Example 27, N-(4-((4-(3-(3-tert-Butyl-1-p-tolyl-1H-pyrazol-5-yl)ureido)naphthalen-1-yloxy)methyl)pyridin-2-yl)-2-(methylamino)acetamide] | − (− <30%) | − (− <30%) |
| < 0.01 µM | < 0.01 µM | < 5 µM | < 0.5 µM | COc1ccc(CN(C)CC(=O)Nc2cc(COc3ccc(NC(=O)Nc4cc(C(C)(C)C)nn4-c4ccc(C)cc4)c4ccccc34)ccn2)cc1 [Example 28, N-(4-((4-(3-(3-tert-Butyl-1-p-tolyl-1H-pyrazol-5-yl)ureido)naphthalen-1-yloxy)methyl)pyridin-2-yl)-2-((4-methoxybenzyl)(methyl)amino)acetamide] | − (− <30%) | − (− <30%) |
